Measurements published in patent US20210161189A1, “MONOESTER SUGAR DERIVATIVES AS FLAVOR MODIFIERS” (Firmenich SA, priority 2018, published 2021).

Tests used:
Type in all cases: in vivo, human
[1] = test system: sensory panel; experiment: Sensory panel, orange flavored test composition; conditions: 200 ppm in orange flavored test composition, panel score
Protocol: (§1) Next, glucose-6-O-octanoate was added to an orange flavored test composition, to result in a final concentration of 200 ppm in the test composition. In parallel, a control composition, comprising orange flavor was also generated. A sensory panel consisting of between 6 to 8 persons compared the overall flavor, sweetness, acidity, bitterness, astringency, off-notes, and long-lastingness of the sweetness of the test composition and the control composition. The results were analyzed using the Duncan comparison test.

[2] = test system: sensory panel; experiment: Sensory panel, energy drink; set-up: scale not given here; conditions: panel score
Protocol: […] In parallel, a control energy drink composition was also generated. A sensory panel consisting of between 6 to 8 persons compared the overall flavor, sweetness, acidity, bitterness, astringency, off-notes, and long-lastingness of the sweetness of the test composition and the control composition. The results were analyzed using the Duncan comparison test.

[3] = test system: sensory panel; experiment: Sensory panel, strawberry flavored bottled water (BWAT) containing 7% w/v sucrose; conditions: 100 ppm in strawberry BWAT 7% sucrose; panel score
Protocol: Next, glucose-6-O-octanoate was added to a fruit flavored bottled water test composition (strawberry flavored water, containing 7% w/v sucrose), to result in a final concentration of 100 ppm in the test composition.

[4] = test system: sensory panel; experiment: Sensory panel, coffee composition (Emmi Noir coffee, containing milk); conditions: 200 ppm in coffee containing milk; panel score
Protocol: as §1, with “a coffee composition (Emmi Noir coffee, containing milk),” for “an orange flavored test composition,”, “Emmi Noir coffee, containing milk” for “orange flavor”

CCCCCCCC(=O)OC[C@@H](O)[C@@H](O)[C@H](O)[C@@H](O)C=O [glucose-6-O-octanoate]
Acidity [1]: 2.07 | Astringency [1]: decreasing | Bitterness [1]: decreasing the perceived bitterness | Long-Lasting [1]: 0.29 | Off-notes [1]: 0.14 | Overall Flavor [1]: 3 | Sweetness [1]: 2.79 | Astringency ([1]; listed as 71007): 1 B | Bitterness ([1]; listed as 71007): 1.07 B | Acidity ([2]; 100 ppm in energy drink): 2.17 | Astringency ([2]; 100 ppm in energy drink): 0.67 | Bitterness ([2]; 100 ppm in energy drink): 0.83 | Long-Lasting ([2]; 100 ppm in energy drink): 2 | Overall Flavor ([2]; 100 ppm in energy drink): 3.33 | Acidity ([2]; 200 ppm in energy drink): 2.5 | Astringency ([2]; 200 ppm in energy drink): 0.29 | Bitterness ([2]; 200 ppm in energy drink): 0.93 | Off-notes ([2]; 200 ppm in energy drink): 0.21 | Overall Flavor ([2]; 200 ppm in energy drink): 3.5 | Astringency [3]: 0.5 | Long-Lasting [3]: 0.92 | Off-notes [3]: 0.33 | Overall Flavor [3]: 3 | Sweetness [3]: 4.08 | Acidity [4]: 0.17 | Bitterness [4]: 1.92 | Long-lasting (sweet) [4]: 1.83 | Off-notes [4]: 0.33 | Overall Flavor [4]: 3.17
